Data: patent US4282243A, “Optical isomers of 4-amino-N-(1-cyclohexyl-3-pyrrolidinyl)-N-methylbenzamide” (A. H. Robins Company, Inc., priority 1980, dated 1981)

What was measured:
Type in all cases: in vivo
dog = assay: Anti-emetic activity in dogs, modified anti-apomorphine method; details: fumarate salts; for ED50: Canis lupus familiaris, sc, expressed as free base, read-out: ED50 (95% Confidence Limits), anti-apomorphine
Procedure: The anti-emetic properties of the fumarate salts were established in dogs using a modification of the anti-apomorphine methods of Chen and Ensor, J. Pharmac. Exp. Ther. 98, 245-250 (1950) and of Leonard et al., J. Pharmac. Exp. Ther. 154, 339-345 (1966) and the ED50 was calculated by the method of Goldstein (Biostatistics, An Introductory Text, pg. 156-161, The MacMillan Co., N. Y., 1964).

rat = assay: Cataleptic effects in rat, procedure based on Tedeschi et al.; details: for cataleptic effect (NSE = no significant cataleptic effect in doses up to indicated amount): rat, fumarate salts, expressed as free base
Excerpt: (§1) The procedure used for determining cataleptic effects of the fumarate salts was based on that of Tedeschi et al., Arch. Int. Pharmacodyn.

[1] = as above; details: in vivo; rat, IP; fumarate salts, expressed as free base; read-out: ED50, cataleptic effect
Excerpt: as §1

SMILES	anti-apomorphine activity (words in the ED50 column) (dog; s.c.)	cataleptic effect (NSE = no significant cataleptic effect in doses up to indicated amount) (rat; IP)	cataleptic effect (NSE = no significant cataleptic effect in doses up to indicated amount) (rat; PO)	ED50 (dog) [mg/kg]	cataleptic properties (rat; general statement)	ED50 [1] [mg/kg]
CN(C(=O)c1ccc(N)cc1)C1CCN(C2CCCCC2)C1 (single isomer, unassigned; (+)) [(+)-isomer, (+)-4-amino-N-(1-cyclohexyl-3-pyrrolidinyl)-N-methylbenzamide]	no significant	NSE to 100	NSE to 200	–	–	–
CN(C(=O)c1ccc(N)cc1)C1CCN(C2CCCCC2)C1 (racemic) [± racemate, 4-amino-N-(1-cyclohexyl-3-pyrrolidinyl)-N-methylbenzamide]	–	NSE to 100	NSE to 200	0.25	notable absence of cataleptic properties	–
CN(C(=O)c1ccc(N)cc1)C1CCN(C2CCCCC2)C1 (single isomer, unassigned; (-)) [(-)-isomer, (-)-4-amino-N-(1-cyclohexyl-3-pyrrolidinyl)-N-methylbenzamide]	–	–	–	0.09	–	> 100
